Laboratory results reported in US20220401468A1 (priority 2021, published 2022).

Tested on: VSV-eGFP-SARS-CoV-2
Assay type: cell-based, VSV-SARS-CoV-2 chimeric virus

Question: For Heparin sodium salt, which “half-maximal inhibitory concentration (IC50), infected (GFP+) cells” value is on record?
Answer: Its value is 0.03 µg/mL.
